Source: publication PMC7265341, “Quantifying CDK inhibitor selectivity in live cells” (Nature Communications, 2020)
Where two headings read alike, the source gives them in different places. Each block holds one compound with its values, some of them ahead of it.

Assays:
CDK14/Cyclin Y = CDK14/Cyclin Y (Homo sapiens, UniProt O94921); assay: NanoBRET live-cell target engagement, CDK14-NanoLuc/Cyclin Y in HEK-293; format: binding
CDK10/Cyclin L2 = CDK10/Cyclin L2 (Homo sapiens, UniProt Q15131); assay: NanoBRET live-cell target engagement, CDK10-NanoLuc/Cyclin L2 in HEK-293; settings: for Inhibition at 10µM (%) Replicate 1 / Inhibition at 10µM (%) Replicate 2 / Inhibition at 10µM (%) Average / IC50 / Inhibition at 10µM (%): CDK10/L2
Sequence of CDK10/Cyclin L2 (Q15131 whole entry): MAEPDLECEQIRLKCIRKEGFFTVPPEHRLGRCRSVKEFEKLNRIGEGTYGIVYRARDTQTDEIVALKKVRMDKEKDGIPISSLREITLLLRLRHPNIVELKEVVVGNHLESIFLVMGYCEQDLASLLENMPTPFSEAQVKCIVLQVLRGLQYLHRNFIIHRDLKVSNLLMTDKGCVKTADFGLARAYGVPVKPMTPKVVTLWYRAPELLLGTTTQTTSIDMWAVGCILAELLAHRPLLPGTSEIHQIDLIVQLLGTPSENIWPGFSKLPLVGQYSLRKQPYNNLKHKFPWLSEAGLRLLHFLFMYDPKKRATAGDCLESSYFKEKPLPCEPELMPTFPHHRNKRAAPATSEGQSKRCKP

[1] = CDK14/Y, n=3 average ± SEM, n=2 average to 2 significant figures, read-out: IC50 (nM) Average*
[2] = CDK14/Y, read-out: IC50 (nM) Replicate 1
[3] = CDK14/Y, read-out: IC50 (nM) Replicate 2
[4] = read-out: Inhibition at 10µM (%) Average, CDK10/L2, 10µM, average of replicates
[5] = read-out: Inhibition at 10µM (%) Replicate 1, CDK10/L2, 10µM
[6] = read-out: Inhibition at 10µM (%) Replicate 2, CDK10/L2, 10µM
[7] = CDK14/Y, 10µM, average of replicates
[8] = CDK14/Y, average, read-out: Inhibition at 10µM (%)
[9] = CDK14/Y, experiment 1, read-out: Inhibition at 10µM (%)
[10] = CDK14/Y, experiment 2, read-out: Inhibition at 10µM (%)
[11] = IC50 (nM), average (± SEM where n=3)
[12] = read-out: Inhibition at 10µM (%), CDK10/L2, average
[13] = read-out: Inhibition at 10µM (%), CDK10/L2, experiment 1
[14] = read-out: Inhibition at 10µM (%), CDK10/L2, experiment 2

Sequence of CDK14/Cyclin Y (O94921 whole entry): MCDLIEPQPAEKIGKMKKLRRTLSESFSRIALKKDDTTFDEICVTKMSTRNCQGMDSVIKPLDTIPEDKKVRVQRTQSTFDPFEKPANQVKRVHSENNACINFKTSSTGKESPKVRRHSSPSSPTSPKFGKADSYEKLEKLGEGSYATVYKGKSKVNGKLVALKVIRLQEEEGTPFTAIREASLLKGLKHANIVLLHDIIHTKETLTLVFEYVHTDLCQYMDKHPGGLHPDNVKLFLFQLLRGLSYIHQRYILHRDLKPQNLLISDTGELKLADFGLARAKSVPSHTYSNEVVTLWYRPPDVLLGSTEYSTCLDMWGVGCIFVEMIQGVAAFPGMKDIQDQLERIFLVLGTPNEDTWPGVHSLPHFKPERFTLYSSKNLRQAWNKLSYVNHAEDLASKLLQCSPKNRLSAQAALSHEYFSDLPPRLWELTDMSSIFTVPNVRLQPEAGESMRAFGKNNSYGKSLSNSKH
Sequence of CDK14/Cyclin Y (Q8ND76 whole entry partner): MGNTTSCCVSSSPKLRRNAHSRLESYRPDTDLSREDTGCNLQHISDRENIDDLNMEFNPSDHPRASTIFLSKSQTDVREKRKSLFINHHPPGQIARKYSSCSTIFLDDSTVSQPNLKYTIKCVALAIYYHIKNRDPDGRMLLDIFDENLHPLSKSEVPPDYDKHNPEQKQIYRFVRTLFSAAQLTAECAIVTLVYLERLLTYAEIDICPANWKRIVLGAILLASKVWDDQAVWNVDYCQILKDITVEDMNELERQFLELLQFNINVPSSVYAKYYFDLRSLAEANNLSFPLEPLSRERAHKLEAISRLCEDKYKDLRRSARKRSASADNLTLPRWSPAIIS

Structure (SMILES): C[C@H]1CC[C@H](n2c3cnccc3c3cnc(Nc4ccc5c(n4)CCN(C(=O)CO)C5)nc32)CC1 [AMG 925]
IC50 (CDK14/Cyclin Y; [1]): 600 ± 200 nM
IC50 (CDK14/Cyclin Y; [2]): 217 nM
IC50 (CDK14/Cyclin Y; [3]): 690 nM
IC50 (CDK14/Cyclin Y; CDK14/Y, read-out: IC50 (nM) Replicate 3): 766 nM
inhibition at 10 µM (CDK14/Cyclin Y; read-out: Inhibition at 10µM (%) Average, CDK14/Y, 10µM, average of replicates): 32.4%
inhibition at 10 µM (CDK14/Cyclin Y; read-out: Inhibition at 10µM (%) Replicate 1, CDK14/Y, 10µM): 39%
inhibition at 10 µM (CDK14/Cyclin Y; read-out: Inhibition at 10µM (%) Replicate 2, CDK14/Y, 10µM): 25.8%
inhibition at 10 µM (CDK10/Cyclin L2; [4]): 2.1%
inhibition at 10 µM (CDK10/Cyclin L2; [5]): 1.6%
inhibition at 10 µM (CDK10/Cyclin L2; [6]): 2.6%

Structure (SMILES): CCN1CCN(Cc2ccc(NC(=O)Nc3ccc(Oc4cc(NC)ncn4)cc3)cc2C(F)(F)F)CC1 [AST-487]
inhibition at 10 µM (CDK10/Cyclin L2; [4]): 84.1%
inhibition at 10 µM (CDK10/Cyclin L2; [5]): 74.4%
inhibition at 10 µM (CDK10/Cyclin L2; [6]): 93.8%

Structure (SMILES): Cc1ncc(-c2ccnc(Nc3ccc(S(C)(=O)=O)cc3)n2)n1C(C)C [AZD5438]
inhibition at 10 µM (CDK14/Cyclin Y; CDK14/Y, 10µM, average of replicates, read-out: Inhibition at 10µM (%) Average): 70.3%
inhibition at 10 µM (CDK14/Cyclin Y; CDK14/Y, 10µM, read-out: Inhibition at 10µM (%) Replicate 1): 69.6%
inhibition at 10 µM (CDK14/Cyclin Y; CDK14/Y, 10µM, read-out: Inhibition at 10µM (%) Replicate 2): 71%
inhibition at 10 µM (CDK10/Cyclin L2; [4]): 64.8%
inhibition at 10 µM (CDK10/Cyclin L2; [5]): 63.3%
inhibition at 10 µM (CDK10/Cyclin L2; [6]): 66.2%

Structure (SMILES): CNC1CCN(C(=O)c2ccc(Nc3ncc(F)c(-c4cnc(C)n4C(C)C)n3)cc2)C1 (stereo not drawn) [AZD5597]
Inhibition at 10µM (%) Replicate 1 (CDK14/Cyclin Y; CDK14/Y, 10µM): 93.6%
Inhibition at 10µM (%) Replicate 2 (CDK14/Cyclin Y; CDK14/Y, 10µM): 93.4%
Inhibition at 10µM (%) Average (CDK14/Cyclin Y; [7]): 93.5%
IC50 (CDK14/Cyclin Y; [1]): 250 nM
IC50 (CDK14/Cyclin Y; [2]): 151 nM
IC50 (CDK14/Cyclin Y; [3]): 350 nM
Inhibition at 10µM (%) Replicate 1 (CDK10/Cyclin L2; 10µM): 85.6%
Inhibition at 10µM (%) Replicate 2 (CDK10/Cyclin L2; 10µM): 87.4%
Inhibition at 10µM (%) Average (CDK10/Cyclin L2; 10µM, average of replicates): 86.5%
IC50 (CDK10/Cyclin L2; read-out: IC50 (nM) Average*, n=3 average ± SEM, n=2 average to 2 significant figures): 520 nM
IC50 (CDK10/Cyclin L2; read-out: IC50 (nM) Replicate 1): 450 nM
IC50 (CDK10/Cyclin L2; read-out: IC50 (nM) Replicate 2): 580 nM

Structure (SMILES): CC(C)c1cnn2c(NCc3ccccc3)cc(N[C@@H](CO)[C@H](O)CO)nc12 [BS-194]
Inhibition at 10µM (%) Replicate 1 (CDK14/Cyclin Y; CDK14/Y, 10µM): 70.6%
Inhibition at 10µM (%) Replicate 2 (CDK14/Cyclin Y; CDK14/Y, 10µM): 73.5%
Inhibition at 10µM (%) Average (CDK14/Cyclin Y; [7]): 72.1%
Inhibition at 10µM (%) Replicate 1 (CDK10/Cyclin L2; 10µM): 30.3%
Inhibition at 10µM (%) Replicate 2 (CDK10/Cyclin L2; 10µM): 21.0%
Inhibition at 10µM (%) Average (CDK10/Cyclin L2; 10µM, average of replicates): 25.6%

Structure (SMILES): COc1ccc(F)cc1-c1cc(NC(=O)C2CCCNC2)ncc1Cl (stereo not drawn) [CDK inhibitor 2]
inhibition at 10 µM (CDK14/Cyclin Y; [8]): 86.5%
inhibition at 10 µM (CDK14/Cyclin Y; [9]): 89.6%
inhibition at 10 µM (CDK14/Cyclin Y; [10]): 83.5%
IC50 (CDK10/Cyclin L2; [11]): 500 ± 200 nM
IC50 (CDK10/Cyclin L2; IC50 (nM), experiment 1): 340 nM
IC50 (CDK10/Cyclin L2; IC50 (nM), experiment 2): 230 nM
IC50 (CDK10/Cyclin L2; IC50 (nM), experiment 3): 972 nM
inhibition at 10 µM (CDK10/Cyclin L2; [12]): 83.1%
inhibition at 10 µM (CDK10/Cyclin L2; [13]): 83.7%
inhibition at 10 µM (CDK10/Cyclin L2; [14]): 82.5%

Structure (SMILES): CCn1cnc2c(Nc3cccc(Cl)c3)nc(N[C@@H]3CCCC[C@@H]3N)nc21 [CGP74514A]
Inhibition at 10µM (%) (CDK14/Cyclin Y; CDK14/Y, average): 63.7%
Inhibition at 10µM (%) (CDK14/Cyclin Y; CDK14/Y, experiment 1): 59.7%
Inhibition at 10µM (%) (CDK14/Cyclin Y; CDK14/Y, experiment 2): 67.6%
Inhibition at 10µM (%) (CDK10/Cyclin L2; average): 40.2%
Inhibition at 10µM (%) (CDK10/Cyclin L2; experiment 1): 37.4%
Inhibition at 10µM (%) (CDK10/Cyclin L2; experiment 2): 42.9%

inhibition at 10 µM (CDK14/Cyclin Y; [8]): 45.3%
inhibition at 10 µM (CDK14/Cyclin Y; [9]): 42.1%
inhibition at 10 µM (CDK14/Cyclin Y; [10]): 48.5%
inhibition at 10 µM (CDK10/Cyclin L2; [12]): 40.4%
inhibition at 10 µM (CDK10/Cyclin L2; [13]): 38.5%
inhibition at 10 µM (CDK10/Cyclin L2; [14]): 42.3%
Structure (SMILES): CC(C)c1cnn2c(NCc3ccccc3)cc(NC[C@H]3CCNC[C@@H]3O)nc12 [CT7001]

inhibition at 10 µM (CDK10/Cyclin L2; [12]): 38.5%
inhibition at 10 µM (CDK10/Cyclin L2; [13]): 45.2%
inhibition at 10 µM (CDK10/Cyclin L2; [14]): 31.9%
Structure (SMILES): CN1CC[C@H](c2c(O)cc(O)c3c(=O)cc(-c4ccccc4Cl)oc23)[C@H](O)C1 [Flavopiridol]

inhibition at 10 µM (CDK14/Cyclin Y; [8]): 84.9%
inhibition at 10 µM (CDK14/Cyclin Y; [9]): 87.3%
inhibition at 10 µM (CDK14/Cyclin Y; [10]): 82.6%
IC50 (CDK10/Cyclin L2; [11]): 500 ± 100 nM
IC50 (CDK10/Cyclin L2; IC50 (nM), experiment 1): 310 nM
IC50 (CDK10/Cyclin L2; IC50 (nM), experiment 2): 530 nM
IC50 (CDK10/Cyclin L2; IC50 (nM), experiment 3): 670 nM
inhibition at 10 µM (CDK10/Cyclin L2; [12]): 79.8%
inhibition at 10 µM (CDK10/Cyclin L2; [13]): 79.7%
inhibition at 10 µM (CDK10/Cyclin L2; [14]): 79.9%
Structure (SMILES): CN1CCN(Cc2ccc(NC(=O)Nc3ccc(Oc4ccnc(N)n4)cc3)cc2C(F)(F)F)CC1 [K03861]

Structure (SMILES): COc1ccccc1-c1cc(Nc2cccc(CS(N)(=O)=O)c2)ncn1 [LDC000067]
inhibition at 10 µM (CDK14/Cyclin Y; read-out: Inhibition at 10µM (%), CDK14/Y, average): -2.3%
inhibition at 10 µM (CDK14/Cyclin Y; read-out: Inhibition at 10µM (%), CDK14/Y, experiment 1): -0.216%
inhibition at 10 µM (CDK14/Cyclin Y; read-out: Inhibition at 10µM (%), CDK14/Y, experiment 2): -4.4%
inhibition at 10 µM (CDK10/Cyclin L2; [12]): 6.6%
inhibition at 10 µM (CDK10/Cyclin L2; [13]): 10.2%
inhibition at 10 µM (CDK10/Cyclin L2; [14]): 3.1%
